# Test results reported in US20020055639A1, “Pyrazole derivatives as herbicides” (priority 1997, published 2002).
# Tested on: Avena
# Experiment: Pre-emergence herbicidal action (Example B1)
# Assay type: in vivo
# Design: key: 1=total damage; 9=no action; Ratings of from 1 to 4 (especially from 1 to 3) indicate good to very good herbicidal action
# Details: 2000 g a.i./ha, sprayed immediately after sowing, evaluated after 3 weeks, scale of nine ratings
# Experimental: (§1) Monocotyledonous and dicotyledonous test plants are sown in standard soil in plastics pots. Immediately after sowing, the test compounds, each in the form of an aqueous suspension or emulsion prepared from a 25% emulsifiable concentrate (Example F1, c) in WO 97/34485, pages 9 and 10), are applied by spraying at a rate of application of 2000 g of active ingredient/ha (500 liters water/ha). The test plants are then grown in a greenhouse under optimum conditions. After 3 weeks' test duration, the test is evaluated in accordance with a scale of nine ratings (1=total damage, 9=no action). Ratings of from 1 to 4 (especially from 1 to 3) indicate good to very good herbicidal action.
# (§2) Test plants: Avena, Setaria, Sinapis, Stellaria
row,Compound,Pre-emergence action: Avena (rating)
1,Cn1nc(-c2c(Cl)cc(Cl)c(=O)n2CS(C)(=O)=O)c(Cl)c1OC(F)F [Example 1.152],1
2,Cn1nc(-c2c(F)cc(Cl)c(=O)n2CC#N)c(Cl)c1OC(F)F [Example 1.126],1
3,CCOC(=O)Cn1c(-c2nn(C)c(OC(F)F)c2Cl)c(F)cc(Cl)c1=O [Example 1.181],1
4,Cn1nc(-c2ccc(Cl)c(=O)n2C)c(Cl)c1OC(F)F [Example 1.001],1
5,CCOC(=O)CCCn1c(-c2nn(C)c(OC(F)F)c2Cl)c(F)cc(Cl)c1=O [Example 1.205],1
6,Cn1nc(-c2c(F)cc(Cl)c(=O)n2C[S+](C)[O-])c(Cl)c1OC(F)F (stereo not shown) [Example 1.150],1
7,Cn1nc(-c2c(Cl)cc(Cl)c(=O)n2C)c(Cl)c1OC(F)F [Example 1.003],1
8,C=CCn1c(-c2nn(C)c(OC(F)F)c2Cl)c(F)cc(Cl)c1=O [Example 1.080],1

# Tested on: Stellaria
# Experiment: Pre-emergence herbicidal action (Example B1)
# Assay type: in vivo
# Design: key: 1=total damage; 9=no action; Ratings of from 1 to 4 (especially from 1 to 3) indicate good to very good herbicidal action
# Details: 2000 g a.i./ha, sprayed immediately after sowing, evaluated after 3 weeks, scale of nine ratings
# Experimental: as §1, §2
row,Compound,Pre-emergence action: Stellaria (rating)
1,Cn1nc(-c2c(Cl)cc(Cl)c(=O)n2CS(C)(=O)=O)c(Cl)c1OC(F)F [Example 1.152],1
2,Cn1nc(-c2c(F)cc(Cl)c(=O)n2CC#N)c(Cl)c1OC(F)F [Example 1.126],1
3,CCOC(=O)Cn1c(-c2nn(C)c(OC(F)F)c2Cl)c(F)cc(Cl)c1=O [Example 1.181],1
4,Cn1nc(-c2ccc(Cl)c(=O)n2C)c(Cl)c1OC(F)F [Example 1.001],1
5,CCOC(=O)CCCn1c(-c2nn(C)c(OC(F)F)c2Cl)c(F)cc(Cl)c1=O [Example 1.205],1
6,Cn1nc(-c2c(F)cc(Cl)c(=O)n2C[S+](C)[O-])c(Cl)c1OC(F)F (stereo not shown) [Example 1.150],1
7,Cn1nc(-c2c(Cl)cc(Cl)c(=O)n2C)c(Cl)c1OC(F)F [Example 1.003],1
8,C=CCn1c(-c2nn(C)c(OC(F)F)c2Cl)c(F)cc(Cl)c1=O [Example 1.080],1

# Tested on: Sinapis
# Experiment: Pre-emergence herbicidal action (Example B1)
# Assay type: in vivo
# Design: key: 1=total damage; 9=no action; Ratings of from 1 to 4 (especially from 1 to 3) indicate good to very good herbicidal action
# Details: 2000 g a.i./ha, sprayed immediately after sowing, evaluated after 3 weeks, scale of nine ratings
# Experimental: as §1, §2
row,Compound,Pre-emergence action: Sinapis (rating)
1,Cn1nc(-c2c(Cl)cc(Cl)c(=O)n2CS(C)(=O)=O)c(Cl)c1OC(F)F [Example 1.152],1
2,Cn1nc(-c2c(F)cc(Cl)c(=O)n2CC#N)c(Cl)c1OC(F)F [Example 1.126],1
3,CCOC(=O)Cn1c(-c2nn(C)c(OC(F)F)c2Cl)c(F)cc(Cl)c1=O [Example 1.181],1
4,Cn1nc(-c2ccc(Cl)c(=O)n2C)c(Cl)c1OC(F)F [Example 1.001],1
5,CCOC(=O)CCCn1c(-c2nn(C)c(OC(F)F)c2Cl)c(F)cc(Cl)c1=O [Example 1.205],1
6,Cn1nc(-c2c(F)cc(Cl)c(=O)n2C[S+](C)[O-])c(Cl)c1OC(F)F (stereo not shown) [Example 1.150],1
7,Cn1nc(-c2c(Cl)cc(Cl)c(=O)n2C)c(Cl)c1OC(F)F [Example 1.003],1
8,C=CCn1c(-c2nn(C)c(OC(F)F)c2Cl)c(F)cc(Cl)c1=O [Example 1.080],1

# Tested on: Setaria
# Experiment: Pre-emergence herbicidal action (Example B1)
# Assay type: in vivo
# Design: key: 1=total damage; 9=no action; Ratings of from 1 to 4 (especially from 1 to 3) indicate good to very good herbicidal action
# Details: 2000 g a.i./ha, sprayed immediately after sowing, evaluated after 3 weeks, scale of nine ratings
# Experimental: as §1, §2
row,Compound,Pre-emergence action: Setaria (rating)
1,Cn1nc(-c2c(Cl)cc(Cl)c(=O)n2CS(C)(=O)=O)c(Cl)c1OC(F)F [Example 1.152],1
2,Cn1nc(-c2c(F)cc(Cl)c(=O)n2CC#N)c(Cl)c1OC(F)F [Example 1.126],1
3,CCOC(=O)Cn1c(-c2nn(C)c(OC(F)F)c2Cl)c(F)cc(Cl)c1=O [Example 1.181],1
4,Cn1nc(-c2ccc(Cl)c(=O)n2C)c(Cl)c1OC(F)F [Example 1.001],1
5,CCOC(=O)CCCn1c(-c2nn(C)c(OC(F)F)c2Cl)c(F)cc(Cl)c1=O [Example 1.205],1
6,Cn1nc(-c2c(F)cc(Cl)c(=O)n2C[S+](C)[O-])c(Cl)c1OC(F)F (stereo not shown) [Example 1.150],1
7,Cn1nc(-c2c(Cl)cc(Cl)c(=O)n2C)c(Cl)c1OC(F)F [Example 1.003],1
8,C=CCn1c(-c2nn(C)c(OC(F)F)c2Cl)c(F)cc(Cl)c1=O [Example 1.080],1

# Tested on: Avena
# Experiment: Post-emergence herbicidal action (Example B2)
# Assay type: in vivo
# Design: key: 1=total damage; 9=no action; Ratings of from 1 to 4 (especially from 1 to 3) indicate good to very good herbicidal action
# Details: 2000 g a.i./ha, sprayed at 4- to 6-leaf stage, evaluated after approximately 18 days, scale of nine ratings
# Experimental: (§3) Monocotyledonous and dicotyledonous test plants are grown in a greenhouse in plastics pots containing standard soil and at the 4- to 6-leaf stage are sprayed with an aqueous suspension or emulsion of the test substances of formula I, prepared from a 25% emulsifiable concentrate (Example F1, c) in WO 97/34485, pages 9 and 10), at a rate of application corresponding to 2000 g of active ingredient/ha (500 liters water/ha). The test plants are then grown on in the greenhouse under optimum conditions. After approximately 18 days' test duration, the test is evaluated in accordance with a scale of nine ratings (1=total damage, 9=no action). Ratings of from 1 to 4 (especially from 1 to 3) indicate good to very good herbicidal action.
# as §2
row,Compound,Post-emergence action: Avena (rating)
1,Cn1nc(-c2c(Cl)cc(Cl)c(=O)n2CS(C)(=O)=O)c(Cl)c1OC(F)F [Example 1.152],1
2,Cn1nc(-c2c(F)cc(Cl)c(=O)n2CC#N)c(Cl)c1OC(F)F [Example 1.126],1
3,CCOC(=O)Cn1c(-c2nn(C)c(OC(F)F)c2Cl)c(F)cc(Cl)c1=O [Example 1.181],1
4,Cn1nc(-c2ccc(Cl)c(=O)n2C)c(Cl)c1OC(F)F [Example 1.001],1
5,CCOC(=O)CCCn1c(-c2nn(C)c(OC(F)F)c2Cl)c(F)cc(Cl)c1=O [Example 1.205],1
6,Cn1nc(-c2c(F)cc(Cl)c(=O)n2C[S+](C)[O-])c(Cl)c1OC(F)F (stereo not shown) [Example 1.150],1
7,Cn1nc(-c2c(Cl)cc(Cl)c(=O)n2C)c(Cl)c1OC(F)F [Example 1.003],1
8,C=CCn1c(-c2nn(C)c(OC(F)F)c2Cl)c(F)cc(Cl)c1=O [Example 1.080],1

# Tested on: Stellaria
# Experiment: Post-emergence herbicidal action (Example B2)
# Assay type: in vivo
# Design: key: 1=total damage; 9=no action; Ratings of from 1 to 4 (especially from 1 to 3) indicate good to very good herbicidal action
# Details: 2000 g a.i./ha, sprayed at 4- to 6-leaf stage, evaluated after approximately 18 days, scale of nine ratings
# Experimental: as §3, §2
row,Compound,Post-emergence action: Stellaria (rating)
1,Cn1nc(-c2c(Cl)cc(Cl)c(=O)n2CS(C)(=O)=O)c(Cl)c1OC(F)F [Example 1.152],1
2,Cn1nc(-c2c(F)cc(Cl)c(=O)n2CC#N)c(Cl)c1OC(F)F [Example 1.126],1
3,CCOC(=O)Cn1c(-c2nn(C)c(OC(F)F)c2Cl)c(F)cc(Cl)c1=O [Example 1.181],1
4,Cn1nc(-c2ccc(Cl)c(=O)n2C)c(Cl)c1OC(F)F [Example 1.001],1
5,CCOC(=O)CCCn1c(-c2nn(C)c(OC(F)F)c2Cl)c(F)cc(Cl)c1=O [Example 1.205],1
6,Cn1nc(-c2c(F)cc(Cl)c(=O)n2C[S+](C)[O-])c(Cl)c1OC(F)F (stereo not shown) [Example 1.150],1
7,Cn1nc(-c2c(Cl)cc(Cl)c(=O)n2C)c(Cl)c1OC(F)F [Example 1.003],1
8,C=CCn1c(-c2nn(C)c(OC(F)F)c2Cl)c(F)cc(Cl)c1=O [Example 1.080],1

# Tested on: Sinapis
# Experiment: Post-emergence herbicidal action (Example B2)
# Assay type: in vivo
# Design: key: 1=total damage; 9=no action; Ratings of from 1 to 4 (especially from 1 to 3) indicate good to very good herbicidal action
# Details: 2000 g a.i./ha, sprayed at 4- to 6-leaf stage, evaluated after approximately 18 days, scale of nine ratings
# Experimental: as §3, §2
row,Compound,Post-emergence action: Sinapis (rating)
1,Cn1nc(-c2c(Cl)cc(Cl)c(=O)n2CS(C)(=O)=O)c(Cl)c1OC(F)F [Example 1.152],1
2,Cn1nc(-c2c(F)cc(Cl)c(=O)n2CC#N)c(Cl)c1OC(F)F [Example 1.126],1
3,CCOC(=O)Cn1c(-c2nn(C)c(OC(F)F)c2Cl)c(F)cc(Cl)c1=O [Example 1.181],1
4,Cn1nc(-c2ccc(Cl)c(=O)n2C)c(Cl)c1OC(F)F [Example 1.001],1
5,CCOC(=O)CCCn1c(-c2nn(C)c(OC(F)F)c2Cl)c(F)cc(Cl)c1=O [Example 1.205],1
6,Cn1nc(-c2c(F)cc(Cl)c(=O)n2C[S+](C)[O-])c(Cl)c1OC(F)F (stereo not shown) [Example 1.150],1
7,Cn1nc(-c2c(Cl)cc(Cl)c(=O)n2C)c(Cl)c1OC(F)F [Example 1.003],1
8,C=CCn1c(-c2nn(C)c(OC(F)F)c2Cl)c(F)cc(Cl)c1=O [Example 1.080],1

# Tested on: Setaria
# Experiment: Post-emergence herbicidal action (Example B2)
# Assay type: in vivo
# Design: key: 1=total damage; 9=no action; Ratings of from 1 to 4 (especially from 1 to 3) indicate good to very good herbicidal action
# Details: 2000 g a.i./ha, sprayed at 4- to 6-leaf stage, evaluated after approximately 18 days, scale of nine ratings
# Experimental: as §3, §2
row,Compound,Post-emergence action: Setaria (rating)
1,Cn1nc(-c2c(Cl)cc(Cl)c(=O)n2CS(C)(=O)=O)c(Cl)c1OC(F)F [Example 1.152],1
2,Cn1nc(-c2c(F)cc(Cl)c(=O)n2CC#N)c(Cl)c1OC(F)F [Example 1.126],1
3,CCOC(=O)Cn1c(-c2nn(C)c(OC(F)F)c2Cl)c(F)cc(Cl)c1=O [Example 1.181],1
4,Cn1nc(-c2ccc(Cl)c(=O)n2C)c(Cl)c1OC(F)F [Example 1.001],1
5,CCOC(=O)CCCn1c(-c2nn(C)c(OC(F)F)c2Cl)c(F)cc(Cl)c1=O [Example 1.205],1
6,Cn1nc(-c2c(F)cc(Cl)c(=O)n2C[S+](C)[O-])c(Cl)c1OC(F)F (stereo not shown) [Example 1.150],1
7,Cn1nc(-c2c(Cl)cc(Cl)c(=O)n2C)c(Cl)c1OC(F)F [Example 1.003],1
8,C=CCn1c(-c2nn(C)c(OC(F)F)c2Cl)c(F)cc(Cl)c1=O [Example 1.080],1
